{
  "source": "ChEMBL document CHEMBL1147368",
  "about": "“Constituents of Fevillea cordifolia: New Norcucurbitacin and Cucurbitacin Glycosides” (1993)",
  "format_in_all_cases": "functional",
  "key": {"Rattus norvegicus [1]": {"tested_on": "Rattus norvegicus", "assay": "Antiinflammatory activity in rat assessed as inhibition of carrageenan-induced paw edema at 100 mg/kg, po"}, "Rattus norvegicus [2]": {"tested_on": "Rattus norvegicus", "assay": "Antiinflammatory activity in rat assessed as inhibition of carrageenan-induced paw edema at 0.125 mg/kg, po"}, "Rattus norvegicus [3]": {"tested_on": "Rattus norvegicus", "assay": "Antiinflammatory activity in rat assessed as inhibition of carrageenan-induced paw edema at 2 mg/kg, po"}},
  "data": [
    {"smiles": "CC(=O)Oc1ccccc1C(=O)O", "note": "[ASPIRIN]", "values": [
      {"measurement": "inhibition in vivo at 100 mg/kg", "setting": "Rattus norvegicus [1]", "value": 44, "unit": "%"}
    ]},
    {"smiles": "C[C@H]1C[C@H]2[C@@H]3CCC4=CC(=O)C=C[C@]4(C)[C@@]3(F)[C@@H](O)C[C@]2(C)[C@@]1(O)C(=O)CO", "note": "[BETAMETHASONE]", "values": [
      {"measurement": "inhibition in vivo at 0.125 mg/kg", "setting": "Rattus norvegicus [2]", "value": 63, "unit": "%"}
    ]},
    {"smiles": "COc1ccc2c(c1)c(CC(=O)O)c(C)n2C(=O)c1ccc(Cl)cc1", "note": "[INDOMETHACIN]", "values": [
      {"measurement": "inhibition in vivo at 2 mg/kg", "setting": "Rattus norvegicus [3]", "value": 47, "unit": "%"}
    ]}
  ]
}
